Measurements published in PMC6651196, “Preclinical Evaluation of Radiolabeled Peptides for PET Imaging of Glioblastoma Multiforme” (Molecules, 2019).
Entries after “also recorded” stand apart in the source; their conditions may differ. Like-named read-outs stand apart in the source and are kept apart here.

Legend:
[1] = Plasma stability, HPLC radiochemical purity; conditions: human
Method: (§1) 100 μL of the labeled peptide was mixed with 400 μL of human plasma (Sigma Aldrich, St. Louis, MO, USA). This mixture was incubated at 37 °C and the samples for HPLC analysis to determine the radiochemical purity were taken at selected time points (30, 60, and 120 min). The individual samples were adjusted before the injection on HPLC—every sample was mixed with acetonitrile (Roth, Karlsruhe, Germany) and placed on the shaker (450 rpm) for 60 s and then centrifuged (20,000 RCF, 3 min), followed by removing the supernatant. Finally, the supernatant was analyzed using HPLC.

[2] = Ex vivo biodistribution; conditions: mouse; for tissue to tissue ratio at 0.5 h / tissue to tissue ratio at 1.5 h: female, SCID, total radioactivity, from ex vivo biodistribution; for tissue to tissue ratio at 1.5 h: 90 min p.i.
Method: (§2) SCID female mice (Harlan, Indianapolis, IN, USA) at 6–8 weeks of age were subcutaneously injected into the right flank with 5 × 10^6 U-87 MG cells mixed with Matrigel Matrix (Corning, Corning, NY, USA) at a 1:1 ratio. The tumor growth was continuously monitored by caliperation. When the tumor volume reached 100–300 mm^3 (i.e., 6–8 weeks after inoculation of cells), the mice were used for ex vivo biodistribution studies or µPET/CT imaging. […] The number of animals was reduced as much as possible (n = 3 per group and time point) for all in vivo experiments. The tracer injection and small animal imaging were carried out under 2% isoflurane anesthesia (FORANE, Abbott Laboratories, Abbott Park, IL, USA) to minimize animal suffering and to prevent animal motion.
(§3) For ex vivo biodistribution studies, radiolabeled tracers were diluted with saline. The prepared solutions were applied retro-orbitally (r.o.) to the mice [35] at a dose of 1–2 MBq per mouse corresponding to 0.2–0.4 µg of the peptide. The mice were sacrificed by cervical dislocation 30 min and 90 min post-injection and organs of interest (blood, spleen, pancreas, stomach, intestine, kidneys, liver, heart, lungs, muscle, bone, and tumor) were collected. The samples were weighed and the radioactivity was measured by an automatic gamma counter. The accumulation of radiotracer in studied organs was expressed as a percentage of injected dose per gram of organ.

[3] = Stability in physiological pH (pH 7), HPLC radiochemical purity; conditions: 37 °C
Method: The peptides were labeled as described above. Subsequently, 100 μL of 1.14 M sodium acetate was added to adjust the pH to 7.0. The mixture was incubated at 37 °C and the samples for HPLC analysis to determine the radiochemical purity were taken at selected time points (30, 60, and 120 min) and directly injected on HPLC.

[4] = Partition coefficient (log P), octanol/PBS
Method: Labeled peptide was diluted with 600 μL of phosphate-buffered saline (PBS), and 50 µL of the solution was mixed in the test tube with 450 μL of PBS and 500 μL of octanol. The sample was placed on the shaker (1000 RPM) for 20 min and then centrifuged at 15,000 RPM for 1 min. Subsequently, 50 µL from both octanol and water layer were collected and measured on an automatic gamma counter (PerkinElmer, Waltham, Massachusetts, USA). Partition coefficient was calculated as the decadic logarithm of the ratio of octanol/water activity.

[5] = test system: U-87 MG tumor xenografts; assay: µPET/CT imaging
Method: (§4) SCID female mice (Harlan, Indianapolis, IN, USA) at 6–8 weeks of age were subcutaneously injected into the right flank with 5 × 10^6 U-87 MG cells mixed with Matrigel Matrix (Corning, Corning, NY, USA) at a 1:1 ratio. The tumor growth was continuously monitored by caliperation. When the tumor volume reached 100–300 mm^3 (i.e., 6–8 weeks after inoculation of cells), the mice were used for ex vivo biodistribution studies or µPET/CT imaging. The experimental animals were housed in a specific-pathogen-free animal facility. […] The number of animals was reduced as much as possible (n = 3 per group and time point) for all in vivo experiments. The tracer injection and small animal imaging were carried out under 2% isoflurane anesthesia (FORANE, Abbott Laboratories, Abbott Park, IL, USA) to minimize animal suffering and to prevent animal motion.
(§5) Experimental animals were imaged using microPET/SPECT/CT system Albira (Bruker, Billerica, Massachusetts, USA). Mice were r.o. injected with the radiolabeled tracer at a dose of 5–10 MBq (corresponding to 1–2 μg of peptide for animals injected with ^68Ga-peptides) per animal. Anesthetized animals were placed in a prone position in the Albira system before the start of imaging. Static PET/CT images were acquired over 30 min interval starting 30 and 90 minutes after injection. A 10-min PET scan (axial FOV 148 mm) was performed, followed by a double CT scan (axial FOV 65 mm, 45 kVp, 400 μA, at 400 projections). Scans were reconstructed with the Albira software (Bruker Biospin Corporation, Woodbridge, CT, USA) using the maximum likelihood expectation maximization (MLEM) and filtered back-projection (FBP) algorithms. The PMOD software (PMOD Technologies, Zurich, Switzerland) was used for the image analysis and tracer uptake quantification. Three-dimensional volume rendered images were created in VolView software (Kitware, Clifton Park, NY, USA). The data obtained by PET scan were quantified in PMOD via manually selected volumes of interest (VOIs) and expressed as standardized uptake values (SUV). Using SUVs for the tumor and brain regions the tumor to brain ratios were calculated.

[6] = µPET/CT imaging; conditions: female, SCID, mouse, tumor and brain (PET volumes of interest), total radioactivity
Method: as §4, §5

[7] = Stability in the presence of competing chelator (DTPA), HPLC radiochemical purity; conditions: 37 °C
Method: 50 μL of ^68Ga-labeled peptides were mixed with 150 μL of 6 mM DTPA solution (Sigma Aldrich, St. Louis, MO, USA). The mixture was then incubated at 37 °C and the samples were processed for HPLC analysis to determine the radiochemical purity were taken at selected time points (30, 60, and 120 min) and directly injected on HPLC.

[8] = Plasma protein binding, size-exclusion spin column; conditions: human plasma, 37 °C
Method: (§6) 10 µL of the labeled peptide was mixed with 190 μL of human plasma (Sigma Aldrich, St. Louis, MO, USA), and incubated at 37 °C. Twenty-five µL of sample were collected at 30, 60, and 120 min time intervals for the determination of protein binding. The samples were separated by size-exclusion chromatography (illustra MicroSpin G-50 Column, GE Healthcare, UK) by centrifugation (2000 × g, 1 min). The eluate (protein-bound) and appropriate column (non-protein-bound) were measured on an automatic gamma counter. The percentage of plasma protein binding (PPB) was calculated as the ratio of the activity in the eluate and the activity of the whole sample (column plus the eluate). The blank determination of protein binding, i.e., incubation of the radiotracer in PBS buffer followed by separation of the sample on gel column was performed as the control step.

[9] = test system: U-87 MG cells; assay: Cell uptake assay with and without excess of cold peptide; assay type: cell-based, human; conditions: for Accumulation in U-87 MG cells: 90 min, 37 °C
Method: Human glioblastoma multiforme U-87 MG cells (ATCC, Manassas, VA, USA) were cultured in Dulbecco’s Modified Eagle Medium (Sigma Aldrich, St. Louis, MO, USA) supplemented with 10% fetal bovine serum, 0.1 mM non-essential amino acids and 1.0 mM sodium pyruvate at 37 °C in a 5% carbon dioxide humidified incubator. The cells were subcultured and used for experiments at a confluency of 70–90%.
Cell uptake assay was performed in 24-well plates with U-87 MG cell at high confluency. The assay itself was carried out using a dedicated buffer instead of the regular cell culture media. The buffer consists of 25 mM Tris/HCl, 5.4 mM KCl, 1.8 mM CaCl2, 0.8 mM MgSO4, 5 mM glucose, 140 mM NaCl in H2O [34].
The cells were incubated with ^68Ga-labeled RGD peptides (20 µM) alone and also with excess (2 mM) of cold RGD peptide for 90 min (37 °C) in the buffer described above. The cells were rinsed with PBS, lysed in 0.1 M NaOH and measured for radioactivity in a gamma counter (PerkinElmer, Waltham, Massachusetts, USA). The uptake was calculated as the mean of the percentage of the applied dose ± standard deviation.

[10] = Stability in the presence of competing metal (FeCl3), HPLC radiochemical purity; conditions: 37 °C
Method: 50 μL of ^68Ga-labeled peptides were mixed with 150 μL of 0.1 mM FeCl3 (Sigma Aldrich, St. Louis, MO, USA). The mixture was incubated at 37 °C and the samples for HPLC analysis to determine the radiochemical purity were taken at selected time points (30, 60 and 120 min) and directly injected on HPLC.

[11] = test system: U-87 MG tumor SCID mouse; assay: Ex vivo biodistribution; conditions: 90 min p.i., from ex vivo biodistribution
Method: as §2, §3

[12] = in vivo; conditions: female, SCID, mouse, total radioactivity
Method: as §4, §5

[13] = human, plasma
Method: as §6

[14] = in vitro; conditions: human, plasma
Method: as §1

[15] = in vivo; conditions: female, SCID, mouse, total radioactivity; remark: listed apart in the source
Method: as §2, §3

[16] = mouse, in vivo
Method: as §2, §3

[17] = test system: U-87 MG tumor SCID mouse; conditions: in vivo
Method: as §2, §3

[18] = tumor and blood, Tumor to blood ratio, 30 min p.i.
[19] = tumor and blood, Tumor to blood ratio
[20] = tumor and kidney, Tumor to kidney ratio, 30 min p.i.
[21] = tumor and kidney, Tumor to kidney ratio
[22] = tumor and muscle, Tumor to muscle ratio, 30 min p.i.
[23] = tumor and muscle, Tumor to muscle ratio

SMILES | remaining at 0.5 h [1] [%] | remaining at 1 h [1] [%] | remaining at 2 h [1] [%] | tissue to tissue ratio at 0.5 h [2, 18] | tissue to tissue ratio at 1.5 h [2, 19] | tissue to tissue ratio at 0.5 h [2, 20] | tissue to tissue ratio at 1.5 h [2, 21] | tissue to tissue ratio at 0.5 h [2, 22] | tissue to tissue ratio at 1.5 h [2, 23] | % Stability in pH 7 ([3]; 30 min) [%] | % Stability in pH 7 ([3]; 60 min) [%] | % Stability in pH 7 ([3]; 120 min) [%] | logP [4] | tissue to tissue ratio at 1.5 h [6] | % Stability in 6 mM DTPA ([7]; 60 min) [%] | % Stability in 6 mM DTPA ([7]; 120 min) [%] | Plasma Protein Binding (%) ([8]; incubation 30 min) | Plasma Protein Binding (%) ([8]; incubation 60 min) | Plasma Protein Binding (%) ([8]; incubation 120 min) | Accumulation in U-87 MG cells ([9]; normal cells, 20 µM) | other results
N=C(N)NCCC[C@@H]1NC(=O)[C@H](CCCCNC(=O)CC[C@H](NC(=O)CCC(C(=O)O)N2CCN(CC(=O)O)CCN(CC(=O)O)CC2)C(=O)NCCCC[C@@H]2NC(=O)[C@@H](Cc3ccc(O)cc3)NC(=O)[C@H](CC(=O)O)NC(=O)CNC(=O)[C@H](CCCNC(=N)N)NC2=O)NC(=O)[C@@H](Cc2ccc(O)cc2)NC(=O)[C@H](CC(=O)O)NC(=O)CNC1=O (stereo partly drawn) [^68Ga-NODAGA-c(RGDyK)2, NODAGA-c(RGDyK)2, metal not drawn] | 99.51 ± 0.17 | 99.31 ± 0.11 | 99.02 ± 0.33 | 2.3 | 16.4 | 0.61 | 0.91 | 5.84 | 10.5 | 99.83 ± 0.11 | 99.74 ± 0.18 | 99.62 ± 0.21 | -3.34 ± 0.13 | 4.14 | 99.39 ± 0.54 | 99.06 ± 0.57 | 1.74 | 1.89 | 3.40 | highest accumulation; also recorded: highest binding | tissue uptake at 0.5 h ([2]; tumor, Tumor uptake, 30 min p.i.): 6 %ID/g; PET/CT visualization of the tumor ([5]; 30 and 90 min p.i.): highest accumulation of radioactivity; also recorded: best tumor images; % Stability in 0.1 M FeCl3 ([10]; 30 min): 98.66 ± 0.82%; % Stability in 0.1 M FeCl3 ([10]; 60 min): 99.22 ± 0.19%; % Stability in 0.1 M FeCl3 ([10]; 120 min): 99.17 ± 0.18%
OC[C@H]1OC(O)[C@H](F)[C@@H](O)[C@@H]1O (stereo partly drawn) [^18F-FDG, ^18F-fluorodeoxyglucose, reference compound] |  |  |  |  |  |  |  |  |  |  |  |  |  |  |  |  |  |  |  |  | PET/CT visualization of the tumor ([5]; mouse, in vivo): allowed clear imaging of the tumor
Cc1cn([C@H]2C[C@H]([18F])[C@@H](CO)O2)c(=O)[nH]c1=O [^18F-FLT, ^18F-fluorothymidine, reference compound] |  |  |  |  |  |  |  |  |  |  |  |  |  |  |  |  |  |  |  |  | PET/CT visualization of the tumor ([5]; 30 and 90 min p.i.): could also be imaged
N=C(N)NCCC[C@@H]1NC(=O)[C@H](CCCCNC(=O)CCC(C(=O)O)N2CCN(CC(=O)O)CCN(CC(=O)O)CC2)NC(=O)[C@@H](Cc2ccc(O)cc2)NC(=O)[C@H](CC(=O)O)NC(=O)CNC1=O (stereo partly drawn) [^68Ga-NODAGA-c(RGDyK), NODAGA-c(RGDyK), metal not drawn] | 99.23 ± 0.18 | 99.14 ± 0.19 | 98.81 ± 0.33 | 1.9 | 23.1 | 0.36 | 0.9 | 3.23 | 6.51 | 99.82 ± 0.05 | 99.78 ± 0.12 | 99.72 ± 0.22 | -3.05 ± 0.62 | 4 | 99.20 ± 0.37 | 99.23 ± 0.32 | 2.74 | 1.31 | 3.21 |  | Tumor to blood ratio [11]: 23.1; % Stability in 6 mM DTPA ([7]; 30 min): 99.65 ± 0.07%; % Stability in 0.1 M FeCl3 ([10]; 30 min): 99.24 ± 0.44%; % Stability in 0.1 M FeCl3 ([10]; 60 min): 98.56 ± 0.60%; % Stability in 0.1 M FeCl3 ([10]; 120 min): 98.94 ± 0.42%
N=C(N)NCCC[C@@H]1NC(=O)[C@H](CCCCNC(=O)CN2CCN(CC(=O)O)CCN(CC(=O)O)CCN(CC(=O)O)CC2)NC(=O)[C@@H](Cc2ccccc2)NC(=O)[C@H](CC(=O)O)NC(=O)CNC1=O [^68Ga-DOTA-c(RGDfK), DOTA-c(RGDfK), metal not drawn] | 99.23 ± 0.18 | 99.14 ± 0.19 | 98.81 ± 0.33 | 1.09 | 14.7 | 0.29 | 1.43 | 2.42 | 13.5 | 99.60 ± 0.23 | 99.51 ± 0.13 | 99.49 ± 0.20 | -3.43 ± 0.11 | 4.7 | 99.39 ± 0.54 | 99.06 ± 0.57 | 2.39 | 2.65 | 3.29 | lowest | % Stability in 6 mM DTPA ([7]; 30 min): 99.39 ± 0.43%; Uptake in U-87 cells compared to ^68Ga-NODAGA-c(RGDyK)2 ([9]; normal cells): about 50%; % Stability in 0.1 M FeCl3 ([10]; 30 min): 97.04 ± 1.24%; % Stability in 0.1 M FeCl3 ([10]; 60 min): 96.76 ± 1.21%; % Stability in 0.1 M FeCl3 ([10]; 120 min): 95.83 ± 1.04%
CSCC[C@H](NC(=O)[C@H](CC(C)C)NC(=O)CNC(=O)[C@H](Cc1ccccc1)NC(=O)[C@H](Cc1ccccc1)NC(=O)[C@H](CCC(N)=O)NC(=O)[C@H](CCC(N)=O)NC(=O)[C@@H]1CCCN1C(=O)[C@H](CCCCN)NC(=O)[C@@H]1CCCN1C(=O)[C@H](CCCNC(=N)N)NC(=O)CN1CCN(CC(=O)O)CCN(CC(=O)O)CCN(CC(=O)O)CC1)C(N)=O [^68Ga-DOTA-substance P, DOTA-substance P, metal not drawn] |  |  |  |  |  |  |  |  |  |  |  |  |  |  |  |  |  |  |  | 0.3 % of the applied dose | tissue to tissue ratio at 1.5 h [12]: 4.25; fraction unbound [13]: ~0.71; remaining at 0.5 h [14]: 98.2%; remaining at 1 h [14]: 98.2%; remaining at 2 h [14]: 98%; logP: -3.03 ± 0.33; PET/CT visualization of the tumor ([5]; 30 and 90 min p.i., listed as 68Ga-substance P): did not visualize the tumor; also recorded: did not observe any substantial signal in tumors; tissue to tissue ratio at 0.5 h ([15]; Tumor to blood ratio): 0.93; tissue to tissue ratio at 1.5 h ([15]; Tumor to blood ratio): 2.84; tissue to tissue ratio at 0.5 h ([15]; Tumor to kidney ratio): 0.14; tissue to tissue ratio at 1.5 h ([15]; Tumor to kidney ratio): 0.04; tissue to tissue ratio at 0.5 h ([15]; Tumor to muscle ratio): 3.1; tissue to tissue ratio at 1.5 h ([15]; Tumor to muscle ratio): 6.45; tissue uptake at 1.5 h ([16]; Accumulation in kidneys): 15 to 17 %ID/g; tissue uptake at 0.5 h ([16]; Tumor uptake): 2.14 %ID/g; Tumor to blood ratio [17]: 2.8; Accumulation in kidneys ([17]; 1.5 h): 15 % ID/g; Accumulation in U-87 MG cells ([9]; blocked with excess (2 mM) of cold peptide): 0.3 % of the applied dose; Uptake in U-87 cells compared to ^68Ga-NODAGA-c(RGDyK)2 ([9]; normal cells): about 50%
